# Data: US20080214622A1, “Substituted Triazole Derivatives As Oxytocin Antagonists” (priority 2005, published 2008)
# Target: T1, Oxytocin Receptor (Homo sapiens, UniProt P30559)
# T1 sequence (P30559 1-389): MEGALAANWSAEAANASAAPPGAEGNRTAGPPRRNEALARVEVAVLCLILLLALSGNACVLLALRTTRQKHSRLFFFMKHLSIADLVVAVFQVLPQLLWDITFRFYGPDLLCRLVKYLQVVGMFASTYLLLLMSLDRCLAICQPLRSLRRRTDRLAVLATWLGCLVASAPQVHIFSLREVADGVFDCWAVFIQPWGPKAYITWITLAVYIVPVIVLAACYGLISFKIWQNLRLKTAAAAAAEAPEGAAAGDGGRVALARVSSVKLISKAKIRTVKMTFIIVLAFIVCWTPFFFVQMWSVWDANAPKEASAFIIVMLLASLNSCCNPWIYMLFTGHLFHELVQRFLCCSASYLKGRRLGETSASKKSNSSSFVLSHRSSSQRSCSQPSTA
# Experiment: Oxytocin Receptor Beta-lactamase assay (as detailed in WO 2004/020414)
# Type: cell-based
# Conditions: read-out: Ki value (Oxytocin antagonist activity)
# Excerpt: A suitable assay for determining the Oxytocin antagonist activity of a compound is detailed in International Patent Application WO 2004/020414.
row,Compound,Ki [nM]
1,"COc1ccc(-n2c(C)nnc2-c2ccc(-c3ccccc3OC)cc2)c(OCCN2CCOCC2)n1 [Example 2, 4-[2-({6-Methoxy-3-[3-(2′-methoxybiphenyl-4-yl)-5-methyl-4H-1,2,4-triazol-4-yl]pyridin-2-yl}oxy)ethyl]morpholine]",11.2
2,"COc1ccc(-n2c(C)nnc2-c2ccc(-c3ccccc3OC)cc2OC)cc1 [Example 10, 3-(2′,3-Dimethoxybiphenyl-4-yl)-4-(4-methoxyphenyl)-5-methyl-4H-1,2,4-triazole]",14.6
3,COc1ccc(-n2c(Cn3nccn3)nnc2-c2ccc(-c3ccccc3OC)cc2)cc1 [Example 25],11.7
4,"COCCOc1nc(OC)ccc1-n1c(C)nnc1-c1ccc(-c2ccccc2OC)cc1 [Example 32, 6-Methoxy-3-[3-(2′-methoxybiphenyl-4-yl)-5-methyl-4H-1,2,4-triazol-4-yl]-2-(2-methoxyethoxy)pyridine]",13.8
